{"source": "patent US8940310B2", "about": "“Methods of treatment using TLR7 and/or TLR9 inhibitors” (Dynavax Technologies Corporation, priority 2010, dated 2015)", "key": {"[1]": {"assay": "High dosages of IRPs in mice (weight, histology)", "type": "in vivo, BALB/c mice", "conditions": "for Liver: Liver changes, number of animals / Liver: Mixed cell infiltration, number of animals / Liver: No significan changes, number of animals / Right Kidney: No significant changes, number of animals / Right Kidney: Tubular basophilia, number of animals / Right Kidney: Tubular changes, number of animals: 6 animals; for Heart: No significant changes, number of animals: tissue missing in two animals", "procedure": "To test the activity of IRPs at high dosages in mice, IRPs or a control (saline) were subcutaneously administered to BALB/c mice at a dosage of 4 mg/kg, 20 mg/kg, 50 mg/kg, or 100 mg/kg on days 1, 4, 7, and 10 (n=5 per group). Mice were weighed prior to administration and on days 2, 4, 7, 9, and 11. Serum cytokines were assayed at two hours post the first and third injections and 24 hours post the fourth injection. Organs were harvested at the end of the study, and organ weights and tissues levels of the oligonucleotides were determined. In addition, histological evaluation of the liver, kidney, and heart was performed.\nMice were weighed prior to administration and on days 1, 3, 4, 6, 7, and 9. Organs were harvested at the end of the study, and organ weights and tissues levels of the oligonucleotides were determined. In addition, histological evaluation of the liver, kidney, and heart was performed."}, "human B-cells": {"tested_on": "human B-cells", "assay": "Human B-cells cultured in the presence of IRPs, IL-6", "quoted_text": "For the human B-cell assay, B-cells were purified from total blood cells obtained from healthy donors using magnetic beads (CD19 positive). Cells were resuspended in fresh medium (RPMI 1640 with 10% fetal calf serum, 50 units/mL penicillin, 50 μg/mL streptomycin, and 2 mM glutamine). At 48 hours, supernatants were collected and cytokine levels, IL-6, were measured using immunoassay.\nTo further investigate the effect of IRPs on B-cell stimulatory activity, a wide variety of IRP sequences were assayed for IL-6, along with positive and negative controls. The experiment was performed as described in Example 1 using doses of IRP of either 4.0 μM or 2.0 μM. The positive control was an immunostimulatory sequence (ISS) with SEQ ID NO:157. […] The results are presented as the average normalized IL-6 response over several experiments."}, "[2]": {"assay": "Monomer and tetramer formation of IRPs, size-exclusion HPLC", "type": "physicochemical", "conditions": "100 mg/mL in PBS and 0.5M KCl, room temperature, five weeks", "procedure": "Solutions were prepared of the by mixing 100 mg/mL of the IRP sequences in PBS and 0.5M KCl and storing at room temperature for three to five weeks. The solutions were subsequently analyzed by size-exclusion HPLC."}, "[3]": {"assay": "High dosages of IRPs in rats (weight, deaths, histology)", "type": "in vivo, Sprague Dawley rats", "conditions": "for Heart: Cell Vacuolation, number of animals / Heart: Hemorrhage, number of animals / Heart: Mononuclear Cell Infiltration, number of animals / Heart: Necrosis, number of animals / Heart: No significant changes, number of animals / Liver: Liver changes, number of animals / Liver: Mixed cell infiltration, number of animals / Liver: Necrosis, number of animals / Liver: No significant changes, number of animals / Liver: Vacuolation, number of animals / Right Kidney: Hydronephrosis, number of animals / Right Kidney: Mineralization, number of animals / Right Kidney: Necrosis, number of animals / Right Kidney: No significant changes, number of animals / Right Kidney: Tubular basophilia, number of animals / Right Kidney: Tubular changes, number of animals: 6 animals", "procedure": "To test the activity of IRPs at high dosages in rats, IRPs (SEQ ID NO:42 and SEQ ID NO:109) or a control (PBS) were subcutaneously administered to 8-9 weeks old, […], 3, 6, and 9 (n=6 per group). Rats were weighed prior to administration and on days 1, 3, 4, 6, 7, and 9. Organs were harvested at the end of the study, and organ weights and tissues levels of the oligonucleotides were determined. In addition, histolocial evaluation of the liver, kidney, and heart was performed.\nRats were weighed prior to administration and on days 1, 3, 6, 7, and 9. Organs were harvested at the end of the study, and organ weights and tissues levels of the oligonucleotides were determined. In addition, histological evaluation of the liver, kidney, and heart was performed."}, "[4]": {"conditions": "50 mg/kg, 0 = no change to 4 = severe"}, "[5]": {"conditions": "100 mg/kg, 0 = no change to 4 = severe"}, "[6]": {"conditions": "rat, 10 mg/kg, 0 = no change to 4 = severe"}, "[7]": {"conditions": "rat, 90 mg/kg, 0 = no change to 4 = severe"}}, "note": "Marks after values point to notes of the source that are not given here.", "data": [{"substance": "5′-TGC TCC TGG AGI GGT TG-HEG-T-3′ (DNA TGCTCCTGGAGNGGTTGNT; inosine, internal HEG spacer, chemistry not fully specified) [SEQ ID NO:143]", "values": [{"measurement": "Heart: Chronic inflammation, number of animals", "setting": "[1]; 50 mg/kg", "result": 2}, {"measurement": "Heart: Mineralization, number of animals", "setting": "[1]; 50 mg/kg", "result": 1}, {"measurement": "Heart: Chronic inflammation, mean severity score", "setting": "[1]; [4]", "result": 2.0}, {"measurement": "Heart: Mineralization, mean severity score", "setting": "[1]; [4]", "result": 4.0}, {"measurement": "Liver: Liver changes, mean severity score", "setting": "[1]; [4]", "result": 2.0}, {"measurement": "Liver: Mixed cell infiltration, mean severity score", "setting": "[1]; [4]", "result": 3.0}, {"measurement": "Right Kidney: Tubular basophilia, mean severity score", "setting": "[1]; [4]", "result": 2.0}, {"measurement": "Liver: Liver changes, number of animals", "setting": "[1]; 50 mg/kg", "result": 6}, {"measurement": "Liver: Mixed cell infiltration, number of animals", "setting": "[1]; 50 mg/kg", "result": 6}, {"measurement": "Liver: No significan changes, number of animals", "setting": "[1]; 50 mg/kg", "result": 0}, {"measurement": "Right Kidney: No significant changes, number of animals", "setting": "[1]; 50 mg/kg", "result": 5}, {"measurement": "Right Kidney: Tubular basophilia, number of animals", "setting": "[1]; 50 mg/kg", "result": 1}, {"measurement": "Right Kidney: Tubular changes, number of animals", "setting": "[1]; 50 mg/kg", "result": 0}, {"measurement": "Heart: No significant changes, number of animals", "setting": "[1]; 50 mg/kg", "result": "1**"}, {"measurement": "Heart: Chronic inflammation, number of animals", "setting": "[1]; 100 mg/kg", "result": 0}, {"measurement": "Heart: Mineralization, number of animals", "setting": "[1]; 100 mg/kg", "result": 1}, {"measurement": "Heart: Mineralization, mean severity score", "setting": "[1]; [5]", "result": 3.0}, {"measurement": "Liver: Mixed cell infiltration, mean severity score", "setting": "[1]; [5]", "result": 1.0}, {"measurement": "Liver: Liver changes, number of animals", "setting": "[1]; 100 mg/kg", "result": 0}, {"measurement": "Liver: Mixed cell infiltration, number of animals", "setting": "[1]; 100 mg/kg", "result": 1}, {"measurement": "Liver: No significan changes, number of animals", "setting": "[1]; 100 mg/kg", "result": 5}, {"measurement": "Right Kidney: No significant changes, number of animals", "setting": "[1]; 100 mg/kg", "result": 6}, {"measurement": "Right Kidney: Tubular basophilia, number of animals", "setting": "[1]; 100 mg/kg", "result": 0}, {"measurement": "Right Kidney: Tubular changes, number of animals", "setting": "[1]; 100 mg/kg", "result": 0}, {"measurement": "Heart: No significant changes, number of animals", "setting": "[1]; 100 mg/kg", "result": "3**"}, {"measurement": "Normalized IL-6 Response (Percentage of Positive Control)", "setting": "human B-cells; Experiment # 3, Max Conc 4.0 uM", "result": 5, "unit": "%"}, {"measurement": "B-cell stimulatory activity", "setting": "human B-cells; FIG. 1C, percent IL-6 from CpG-ISS", "result": "low B-cell stimulatory activity"}, {"measurement": "fraction in monomer form", "setting": "[2]", "result": 100, "unit": "%"}, {"measurement": "toxicity profile", "setting": "[3]; rat histology", "result": "favorable toxicity profiles"}, {"measurement": "Heart: Cell Vacuolation, number of animals", "setting": "[3]; rat, 10 mg/kg", "result": 0}, {"measurement": "Heart: Hemorrhage, number of animals", "setting": "[3]; rat, 10 mg/kg", "result": 0}, {"measurement": "Heart: Mononuclear Cell Infiltration, number of animals", "setting": "[3]; rat, 10 mg/kg", "result": 0}, {"measurement": "Heart: Necrosis, number of animals", "setting": "[3]; rat, 10 mg/kg", "result": 0}, {"measurement": "Heart: No significant changes, number of animals", "setting": "[3]; rat, 10 mg/kg", "result": 6}, {"measurement": "Liver: Liver changes, number of animals", "setting": "[3]; rat, 10 mg/kg", "result": 0}, {"measurement": "Liver: Mixed cell infiltration, number of animals", "setting": "[3]; rat, 10 mg/kg", "result": 5}, {"measurement": "Liver: Necrosis, number of animals", "setting": "[3]; rat, 10 mg/kg", "result": 0}, {"measurement": "Liver: No significant changes, number of animals", "setting": "[3]; rat, 10 mg/kg", "result": 1}, {"measurement": "Liver: Vacuolation, number of animals", "setting": "[3]; rat, 10 mg/kg", "result": 2}, {"measurement": "Right Kidney: Hydronephrosis, number of animals", "setting": "[3]; rat, 10 mg/kg", "result": 0}, {"measurement": "Right Kidney: Mineralization, number of animals", "setting": "[3]; rat, 10 mg/kg", "result": 1}, {"measurement": "Right Kidney: Necrosis, number of animals", "setting": "[3]; rat, 10 mg/kg", "result": 0}, {"measurement": "Right Kidney: No significant changes, number of animals", "setting": "[3]; rat, 10 mg/kg", "result": 0}, {"measurement": "Right Kidney: Tubular basophilia, number of animals", "setting": "[3]; rat, 10 mg/kg", "result": 0}, {"measurement": "Right Kidney: Tubular changes, number of animals", "setting": "[3]; rat, 10 mg/kg", "result": 6}, {"measurement": "Liver: Mixed cell infiltration, mean severity score", "setting": "[3]; [6]", "result": 1.4}, {"measurement": "Liver: Vacuolation, mean severity score", "setting": "[3]; [6]", "result": 1.5}, {"measurement": "Right Kidney: Mineralization, mean severity score", "setting": "[3]; [6]", "result": 2.0}, {"measurement": "Right Kidney: Tubular changes, mean severity score", "setting": "[3]; [6]", "result": 1.1}, {"measurement": "Heart: cellular vacuolation", "setting": "[3]; rat, 90 mg/kg", "result": "present in some animals"}, {"measurement": "Kidney: tubular basophilia", "setting": "[3]; rat, 90 mg/kg", "result": "occurred"}, {"measurement": "Liver: hepatocellular cytoplasmic vacuolation", "setting": "[3]; rat, 90 mg/kg", "result": "hepatocellular cytoplasmic vacuolation"}, {"measurement": "Heart: Cell Vacuolation, number of animals", "setting": "[3]; rat, 90 mg/kg", "result": 5}, {"measurement": "Heart: Hemorrhage, number of animals", "setting": "[3]; rat, 90 mg/kg", "result": 0}, {"measurement": "Heart: Mononuclear Cell Infiltration, number of animals", "setting": "[3]; rat, 90 mg/kg", "result": 0}, {"measurement": "Heart: Necrosis, number of animals", "setting": "[3]; rat, 90 mg/kg", "result": 0}, {"measurement": "Heart: No significant changes, number of animals", "setting": "[3]; rat, 90 mg/kg", "result": 1}, {"measurement": "Liver: Liver changes, number of animals", "setting": "[3]; rat, 90 mg/kg", "result": 6}, {"measurement": "Liver: Mixed cell infiltration, number of animals", "setting": "[3]; rat, 90 mg/kg", "result": 1}, {"measurement": "Liver: Necrosis, number of animals", "setting": "[3]; rat, 90 mg/kg", "result": 0}, {"measurement": "Liver: No significant changes, number of animals", "setting": "[3]; rat, 90 mg/kg", "result": 0}, {"measurement": "Liver: Vacuolation, number of animals", "setting": "[3]; rat, 90 mg/kg", "result": 5}, {"measurement": "Right Kidney: Hydronephrosis, number of animals", "setting": "[3]; rat, 90 mg/kg", "result": 0}, {"measurement": "Right Kidney: Mineralization, number of animals", "setting": "[3]; rat, 90 mg/kg", "result": 2}, {"measurement": "Right Kidney: Necrosis, number of animals", "setting": "[3]; rat, 90 mg/kg", "result": 0}, {"measurement": "Right Kidney: No significant changes, number of animals", "setting": "[3]; rat, 90 mg/kg", "result": 0}, {"measurement": "Right Kidney: Tubular basophilia, number of animals", "setting": "[3]; rat, 90 mg/kg", "result": 3}, {"measurement": "Right Kidney: Tubular changes, number of animals", "setting": "[3]; rat, 90 mg/kg", "result": 6}, {"measurement": "Heart: Cell Vacuolation, mean severity score", "setting": "[3]; [7]", "result": 1.0}, {"measurement": "Liver: Liver changes, mean severity score", "setting": "[3]; [7]", "result": 2.1}, {"measurement": "Liver: Mixed cell infiltration, mean severity score", "setting": "[3]; [7]", "result": 1.0}, {"measurement": "Liver: Vacuolation, mean severity score", "setting": "[3]; [7]", "result": 2.7}, {"measurement": "Right Kidney: Mineralization, mean severity score", "setting": "[3]; [7]", "result": 2.0}, {"measurement": "Right Kidney: Tubular basophilia, mean severity score", "setting": "[3]; [7]", "result": 1.0}, {"measurement": "Right Kidney: Tubular changes, mean severity score", "setting": "[3]; [7]", "result": 1.8}]}]}
